Columns and labels:
[1] = target: Substance-K receptor (Homo sapiens) (UniProt P21452); experiment: NK2 (h) CEREP ligand profiling; settings: filed as agonist, Compound concentration 10.0 uM
[2] = target: Delta-type opioid receptor (Homo sapiens) (UniProt P41143); experiment: delta (DOP) (h) CEREP ligand profiling; settings: filed as agonist, Compound concentration 10.0 uM
[3] = target: T1, Alpha-1B adrenergic receptor (Homo sapiens) (UniProt P35368); experiment: alpha 1B (h) CEREP ligand profiling; settings: filed as antagonist, Compound concentration 10.0 uM
T1 sequence (whole entry): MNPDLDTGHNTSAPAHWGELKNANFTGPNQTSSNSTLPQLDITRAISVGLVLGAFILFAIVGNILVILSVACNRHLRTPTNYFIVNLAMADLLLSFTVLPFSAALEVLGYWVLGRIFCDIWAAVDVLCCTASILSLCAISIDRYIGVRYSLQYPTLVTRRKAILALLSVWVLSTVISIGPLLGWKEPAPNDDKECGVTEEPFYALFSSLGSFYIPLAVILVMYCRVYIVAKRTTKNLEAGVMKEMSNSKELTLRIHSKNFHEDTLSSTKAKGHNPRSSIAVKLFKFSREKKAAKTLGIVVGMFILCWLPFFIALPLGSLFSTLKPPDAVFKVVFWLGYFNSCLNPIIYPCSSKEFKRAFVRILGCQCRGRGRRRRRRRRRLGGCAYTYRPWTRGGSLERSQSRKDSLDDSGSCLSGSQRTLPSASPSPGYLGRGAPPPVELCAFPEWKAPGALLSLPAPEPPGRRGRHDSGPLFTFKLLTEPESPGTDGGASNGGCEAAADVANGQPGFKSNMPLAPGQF

[4] = target: Ca2+ channel (L, diltiazem site) (benzothiazepines); voltage-gated L-type calcium channel (family) (Homo sapiens, UniProt O60840+Q01668+Q13698+Q13936); experiment: Ca2+ channel (L, diltiazem site) (benzothiazepines) CEREP ligand profiling; type: protein assay; settings: compound concentration 10 uM
[5] = test system: Tyrosine-protein kinase ABL1 (Homo sapiens), P00519 [H396P]; settings: Compound concentration 1000.0 nM
[6] = target: 5'-AMP-activated protein kinase catalytic subunit alpha-1 (Homo sapiens) (UniProt Q13131); settings: Compound concentration 1000.0 nM
[7] = target: Mitogen-activated protein kinase kinase kinase 6 (Homo sapiens) (UniProt O95382); settings: Compound concentration 1000.0 nM
[8] = target: Calcium/calmodulin-dependent protein kinase type II subunit beta (Homo sapiens) (UniProt Q13554); settings: Compound concentration 1000.0 nM
[9] = target: Cyclin-dependent kinase 3 (Homo sapiens) (UniProt Q00526); settings: Compound concentration 1000.0 nM
[10] = target: Serine/threonine-protein kinase DCLK2 (Homo sapiens) (UniProt Q8N568); settings: Compound concentration 1000.0 nM
[11] = target: Dual specificity tyrosine-phosphorylation-regulated kinase 2 (Homo sapiens) (UniProt Q92630); settings: Compound concentration 1000.0 nM
[12] = test system: Epidermal growth factor receptor (Homo sapiens), P00533 [L861Q]; settings: Compound concentration 1000.0 nM
[13] = target: Tyrosine-protein kinase FRK (Homo sapiens) (UniProt P42685); settings: Compound concentration 1000.0 nM
[14] = target: Homeodomain-interacting protein kinase 4 (Homo sapiens) (UniProt Q8NE63); settings: Compound concentration 1000.0 nM
[15] = target: Mitogen-activated protein kinase 8 (Homo sapiens) (UniProt P45983); settings: Compound concentration 1000.0 nM
[16] = target: Mitogen-activated protein kinase kinase kinase 13 (Homo sapiens) (UniProt O43283); settings: Compound concentration 1000.0 nM
[17] = target: MAP kinase-activated protein kinase 5 (Homo sapiens) (UniProt Q8IW41); settings: Compound concentration 1000.0 nM
[18] = target: Dual specificity mitogen-activated protein kinase kinase 2 (Homo sapiens) (UniProt P36507); settings: Compound concentration 1000.0 nM
[19] = target: Dual specificity mitogen-activated protein kinase kinase 4 (Homo sapiens) (UniProt P45985); settings: Compound concentration 1000.0 nM
[20] = test system: Hepatocyte growth factor receptor (Homo sapiens), P08581 [M1250T]; settings: Compound concentration 1000.0 nM
[21] = test system: Hepatocyte growth factor receptor (Homo sapiens), P08581 [Y1235D]; settings: Compound concentration 1000.0 nM
[22] = target: Mitogen-activated protein kinase kinase kinase 10 (Homo sapiens) (UniProt Q02779); settings: Compound concentration 1000.0 nM
[23] = target: Myosin-IIIa (Homo sapiens) (UniProt Q8NEV4); settings: Compound concentration 1000.0 nM
[24] = target: Serine/threonine-protein kinase Nek1 (Homo sapiens) (UniProt Q96PY6); settings: Compound concentration 1000.0 nM
[25] = target: Serine/threonine-protein kinase PAK 3 (Homo sapiens) (UniProt O75914); settings: Compound concentration 1000.0 nM
[26] = target: Cyclin-dependent kinase 2 homolog (Plasmodium falciparum (isolate 3D7)) (UniProt P61075); settings: Compound concentration 1000.0 nM
[27] = target: Cyclin-dependent kinase 14 (Homo sapiens) (UniProt O94921); settings: Compound concentration 1000.0 nM
[28] = test system: Phosphatidylinositol 4,5-bisphosphate 3-kinase catalytic subunit alpha isoform (Homo sapiens), P42336 [I800L]; settings: Compound concentration 1000.0 nM
[29] = target: cAMP-dependent protein kinase catalytic subunit alpha (Homo sapiens) (UniProt P17612); settings: Compound concentration 1000.0 nM
[30] = target: Serine/threonine-protein kinase D2 (Homo sapiens) (UniProt Q9BZL6); settings: Compound concentration 1000.0 nM
[31] = target: cGMP-dependent protein kinase 1 (Homo sapiens) (UniProt Q13976); settings: Compound concentration 1000.0 nM
[32] = target: Dual serine/threonine and tyrosine protein kinase (Homo sapiens) (UniProt Q6XUX3); settings: Compound concentration 1000.0 nM
[33] = target: Ribosomal protein S6 kinase alpha-3 (Homo sapiens) (UniProt P51812); settings: Compound concentration 1000.0 nM
[34] = target: Ribosomal protein S6 kinase beta-1 (Homo sapiens) (UniProt P23443); settings: Compound concentration 1000.0 nM
[35] = target: Serine/threonine-protein kinase VRK2 (Homo sapiens) (UniProt Q86Y07); settings: Compound concentration 1000.0 nM
[36] = target: Wee1-like protein kinase 2 (Homo sapiens) (UniProt P0C1S8); settings: Compound concentration 1000.0 nM
[37] = target: 5-hydroxytryptamine receptor 1D (Homo sapiens) (UniProt P28221); settings: Compound concentration 10.0 uM

Chain of Phosphatidylinositol 4,5-bisphosphate 3-kinase catalytic subunit alpha isoform (Homo sapiens), P42336 [I800L] (P42336 whole entry I800L, canonical isoform): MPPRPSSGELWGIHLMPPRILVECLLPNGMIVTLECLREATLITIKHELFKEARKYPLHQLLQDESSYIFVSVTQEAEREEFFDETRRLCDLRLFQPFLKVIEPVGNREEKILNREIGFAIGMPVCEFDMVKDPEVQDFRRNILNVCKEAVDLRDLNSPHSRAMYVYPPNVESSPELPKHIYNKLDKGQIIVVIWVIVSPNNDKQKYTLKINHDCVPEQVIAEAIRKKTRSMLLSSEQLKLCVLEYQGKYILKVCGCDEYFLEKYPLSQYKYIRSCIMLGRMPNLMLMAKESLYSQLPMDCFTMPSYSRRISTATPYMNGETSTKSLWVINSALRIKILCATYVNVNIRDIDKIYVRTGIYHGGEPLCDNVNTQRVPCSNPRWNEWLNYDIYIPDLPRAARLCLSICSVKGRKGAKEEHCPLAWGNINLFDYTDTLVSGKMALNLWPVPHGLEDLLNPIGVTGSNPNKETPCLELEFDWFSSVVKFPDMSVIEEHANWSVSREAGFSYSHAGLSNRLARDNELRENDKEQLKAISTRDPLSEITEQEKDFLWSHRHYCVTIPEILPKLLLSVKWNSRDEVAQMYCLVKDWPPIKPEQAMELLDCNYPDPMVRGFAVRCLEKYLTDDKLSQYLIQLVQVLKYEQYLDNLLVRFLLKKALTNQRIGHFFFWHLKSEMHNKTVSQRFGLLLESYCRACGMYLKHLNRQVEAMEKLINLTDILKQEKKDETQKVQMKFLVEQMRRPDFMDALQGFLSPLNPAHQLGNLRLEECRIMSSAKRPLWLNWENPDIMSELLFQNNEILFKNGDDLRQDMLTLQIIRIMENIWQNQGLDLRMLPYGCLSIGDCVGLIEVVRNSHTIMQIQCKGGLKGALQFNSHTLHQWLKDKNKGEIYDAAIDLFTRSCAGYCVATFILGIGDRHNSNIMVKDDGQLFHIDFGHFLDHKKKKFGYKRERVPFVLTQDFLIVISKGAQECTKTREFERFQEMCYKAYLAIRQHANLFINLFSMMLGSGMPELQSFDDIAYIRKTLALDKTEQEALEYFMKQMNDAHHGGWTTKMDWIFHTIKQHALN
Chain of Ribosomal protein S6 kinase alpha-3 (Homo sapiens) (P51812 whole entry): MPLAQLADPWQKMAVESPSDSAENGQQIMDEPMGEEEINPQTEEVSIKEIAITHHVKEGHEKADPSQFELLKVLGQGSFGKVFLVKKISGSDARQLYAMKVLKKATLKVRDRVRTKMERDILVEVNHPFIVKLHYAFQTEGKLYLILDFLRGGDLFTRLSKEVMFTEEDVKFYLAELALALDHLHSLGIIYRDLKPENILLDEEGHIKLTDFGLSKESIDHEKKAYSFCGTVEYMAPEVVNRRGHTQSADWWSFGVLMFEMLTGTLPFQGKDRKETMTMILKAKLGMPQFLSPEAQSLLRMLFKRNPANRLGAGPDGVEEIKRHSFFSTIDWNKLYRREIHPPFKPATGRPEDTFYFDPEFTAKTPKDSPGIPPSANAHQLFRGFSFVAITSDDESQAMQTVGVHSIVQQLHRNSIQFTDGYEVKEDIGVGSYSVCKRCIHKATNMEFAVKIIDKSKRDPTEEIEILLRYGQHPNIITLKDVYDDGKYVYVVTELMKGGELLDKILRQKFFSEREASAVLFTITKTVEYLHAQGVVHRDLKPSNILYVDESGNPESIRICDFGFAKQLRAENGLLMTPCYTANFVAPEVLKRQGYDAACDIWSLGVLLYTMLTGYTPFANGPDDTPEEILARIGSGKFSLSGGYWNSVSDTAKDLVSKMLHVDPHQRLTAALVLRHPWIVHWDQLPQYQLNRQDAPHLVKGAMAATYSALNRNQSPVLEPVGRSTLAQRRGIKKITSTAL
Chain of Serine/threonine-protein kinase VRK2 (Homo sapiens) (Q86Y07 whole entry): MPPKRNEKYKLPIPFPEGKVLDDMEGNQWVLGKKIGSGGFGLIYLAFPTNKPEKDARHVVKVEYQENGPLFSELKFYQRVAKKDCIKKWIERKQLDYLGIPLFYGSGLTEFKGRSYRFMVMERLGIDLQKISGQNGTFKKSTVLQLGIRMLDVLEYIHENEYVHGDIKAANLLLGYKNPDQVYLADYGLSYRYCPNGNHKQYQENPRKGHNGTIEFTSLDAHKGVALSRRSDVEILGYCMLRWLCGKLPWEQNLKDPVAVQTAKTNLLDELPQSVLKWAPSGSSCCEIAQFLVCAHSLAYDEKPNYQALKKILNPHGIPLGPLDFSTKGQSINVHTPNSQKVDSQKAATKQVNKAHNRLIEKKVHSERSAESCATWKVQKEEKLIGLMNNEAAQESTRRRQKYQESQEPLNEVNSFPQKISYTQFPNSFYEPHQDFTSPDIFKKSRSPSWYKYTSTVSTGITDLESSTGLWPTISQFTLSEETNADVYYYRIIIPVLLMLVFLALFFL
Chain of Serine/threonine-protein kinase DCLK2 (Homo sapiens) (Q8N568 whole entry): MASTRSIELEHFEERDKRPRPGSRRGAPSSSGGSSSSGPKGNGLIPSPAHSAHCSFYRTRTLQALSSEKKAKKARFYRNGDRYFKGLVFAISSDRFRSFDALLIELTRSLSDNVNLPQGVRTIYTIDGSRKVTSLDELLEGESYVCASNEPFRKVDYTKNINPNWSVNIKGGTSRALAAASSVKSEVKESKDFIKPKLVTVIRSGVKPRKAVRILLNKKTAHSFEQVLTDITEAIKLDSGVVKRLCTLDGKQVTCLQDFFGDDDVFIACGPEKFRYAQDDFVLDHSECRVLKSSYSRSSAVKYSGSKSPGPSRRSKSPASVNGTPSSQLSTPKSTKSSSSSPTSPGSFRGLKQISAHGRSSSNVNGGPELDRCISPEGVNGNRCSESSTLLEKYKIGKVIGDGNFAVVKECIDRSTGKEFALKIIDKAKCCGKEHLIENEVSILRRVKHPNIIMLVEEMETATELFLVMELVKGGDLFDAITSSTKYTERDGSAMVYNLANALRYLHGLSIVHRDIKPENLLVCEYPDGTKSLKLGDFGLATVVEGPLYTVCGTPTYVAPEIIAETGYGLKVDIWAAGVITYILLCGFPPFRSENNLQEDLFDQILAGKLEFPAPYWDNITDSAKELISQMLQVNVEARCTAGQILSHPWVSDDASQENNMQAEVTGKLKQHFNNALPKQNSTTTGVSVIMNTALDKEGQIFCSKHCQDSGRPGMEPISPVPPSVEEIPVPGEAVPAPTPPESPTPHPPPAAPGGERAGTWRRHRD
Chain of Dual serine/threonine and tyrosine protein kinase (Homo sapiens) (Q6XUX3 whole entry): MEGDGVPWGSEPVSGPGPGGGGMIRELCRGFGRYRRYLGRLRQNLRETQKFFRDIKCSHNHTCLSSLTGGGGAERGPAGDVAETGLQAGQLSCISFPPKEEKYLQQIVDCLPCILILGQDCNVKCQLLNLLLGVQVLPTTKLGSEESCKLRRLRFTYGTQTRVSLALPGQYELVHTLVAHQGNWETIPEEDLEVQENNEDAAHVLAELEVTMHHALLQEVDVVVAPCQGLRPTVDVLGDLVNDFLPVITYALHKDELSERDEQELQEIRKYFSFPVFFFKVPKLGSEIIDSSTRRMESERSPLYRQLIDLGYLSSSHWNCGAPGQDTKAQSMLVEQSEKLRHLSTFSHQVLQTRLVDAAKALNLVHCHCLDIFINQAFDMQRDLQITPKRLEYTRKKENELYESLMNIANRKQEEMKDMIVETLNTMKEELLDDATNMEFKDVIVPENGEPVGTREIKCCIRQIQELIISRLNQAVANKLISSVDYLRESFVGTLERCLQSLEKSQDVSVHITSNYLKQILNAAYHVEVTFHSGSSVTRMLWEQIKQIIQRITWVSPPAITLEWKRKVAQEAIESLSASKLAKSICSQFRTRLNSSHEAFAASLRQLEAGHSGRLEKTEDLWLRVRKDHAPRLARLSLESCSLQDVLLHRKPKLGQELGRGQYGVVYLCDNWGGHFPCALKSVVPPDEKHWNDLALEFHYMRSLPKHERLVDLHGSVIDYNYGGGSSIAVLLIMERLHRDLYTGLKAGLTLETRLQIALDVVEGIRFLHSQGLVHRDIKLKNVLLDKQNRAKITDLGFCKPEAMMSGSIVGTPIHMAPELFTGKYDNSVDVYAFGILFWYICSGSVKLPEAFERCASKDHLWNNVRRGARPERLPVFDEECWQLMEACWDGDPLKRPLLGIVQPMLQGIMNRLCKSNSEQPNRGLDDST
Chain of Serine/threonine-protein kinase PAK 3 (Homo sapiens) (O75914 whole entry, looked up): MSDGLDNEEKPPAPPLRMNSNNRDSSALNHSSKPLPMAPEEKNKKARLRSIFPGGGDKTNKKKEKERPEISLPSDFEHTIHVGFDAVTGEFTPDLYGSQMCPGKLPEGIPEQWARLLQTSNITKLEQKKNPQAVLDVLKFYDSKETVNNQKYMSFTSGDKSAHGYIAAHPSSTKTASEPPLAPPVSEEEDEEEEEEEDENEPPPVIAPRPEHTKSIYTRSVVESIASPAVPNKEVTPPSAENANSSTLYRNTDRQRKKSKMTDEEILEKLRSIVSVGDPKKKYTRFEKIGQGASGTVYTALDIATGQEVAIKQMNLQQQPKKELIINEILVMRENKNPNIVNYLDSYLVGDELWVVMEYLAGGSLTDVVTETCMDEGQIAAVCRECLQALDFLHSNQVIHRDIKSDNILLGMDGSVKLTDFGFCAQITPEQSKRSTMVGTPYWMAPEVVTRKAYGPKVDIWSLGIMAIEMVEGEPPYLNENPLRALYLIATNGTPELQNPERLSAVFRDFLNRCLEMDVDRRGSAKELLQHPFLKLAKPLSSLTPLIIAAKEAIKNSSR
Chain of Dual specificity mitogen-activated protein kinase kinase 2 (Homo sapiens) (P36507 whole entry): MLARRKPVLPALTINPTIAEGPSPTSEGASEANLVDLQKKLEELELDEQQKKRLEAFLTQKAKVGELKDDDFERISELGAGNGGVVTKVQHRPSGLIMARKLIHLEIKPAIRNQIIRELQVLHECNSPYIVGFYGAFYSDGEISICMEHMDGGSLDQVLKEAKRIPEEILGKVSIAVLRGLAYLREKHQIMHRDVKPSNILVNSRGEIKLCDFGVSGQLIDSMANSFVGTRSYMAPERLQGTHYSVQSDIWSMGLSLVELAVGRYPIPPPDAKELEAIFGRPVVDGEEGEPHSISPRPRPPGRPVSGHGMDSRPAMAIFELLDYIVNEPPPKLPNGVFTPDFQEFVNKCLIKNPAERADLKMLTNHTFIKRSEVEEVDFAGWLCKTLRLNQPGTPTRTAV

SMILES | inhibition [1] [%] | inhibition [2] [%] | inhibition [3] [%] | inhibition at 10 µM [4] | residual activity [5] [%] | residual activity [6] [%] | residual activity [7] [%] | residual activity [8] [%] | residual activity [9] [%] | residual activity [10] [%] | residual activity [11] [%] | residual activity [12] [%] | residual activity [13] [%] | residual activity [14] [%] | residual activity [15] [%] | residual activity [16] [%] | residual activity [17] [%] | residual activity [18] [%] | residual activity [19] [%] | residual activity [20] [%] | other results
CNC(=O)Nc1ccc2c(c1)[C@@]1(CC2)OC(=O)N(CC(=O)N(Cc2ccc(F)cc2)[C@@H](C)C(F)(F)F)C1=O [A-486] | 12 | 1 | -6 | -5% (not active) | 83 | 91 | 82 | 100 | 100 | 89 | 92 | 100 | 95 | 100 | 71 | 100 | 86 | 99 | 95 | 100 | residual activity [21]: 93%; residual activity [22]: 73%; residual activity [23]: 100%; residual activity [24]: 100%; residual activity [25]: 91%; residual activity [26]: 95%; residual activity [27]: 100%; residual activity [28]: 63%; residual activity [29]: 99%; residual activity [30]: 100%; residual activity [31]: 100%; residual activity [32]: 89%; residual activity [33]: 75%; residual activity [34]: 100%; residual activity [35]: 97%; residual activity [36]: 100%; inhibition [37]: 2.22%
CNC(=O)Nc1ccc2c(c1)CC[C@@]21OC(=O)N(CC(=O)N(Cc2ccc(F)cc2)[C@@H](C)C(F)(F)F)C1=O [A-485] | 18 | 11 | 4 | 2% (not active) | 74 | 100 | 86 | 81 | 100 | 70 | 88 | 94 | 94 | 97 | 65 | 68 | 82 | 96 | 100 | 75 | residual activity [21]: 81%; residual activity [22]: 57%; residual activity [23]: 100%; residual activity [24]: 100%; residual activity [25]: 91%; residual activity [26]: 91%; residual activity [27]: 79%; residual activity [28]: 83%; residual activity [29]: 100%; residual activity [30]: 100%; residual activity [31]: 100%; residual activity [32]: 78%; residual activity [33]: 88%; residual activity [34]: 100%; residual activity [35]: 91%; residual activity [36]: 75%; inhibition [37]: 18%
